Results taken from patent EP4692061A1, “LOW-MOLECULAR-WEIGHT COMPOUND HAVING CEREBLON-BINDING ACTIVITY, AND USE THEREOF” (Aevis Bio, Inc., priority 2023, dated 2024).

Molecular target: cereblon (CRBN) (Homo sapiens, UniProt Q96SW2)
Experiment: In vitro CRBN binding assay (AlphaScreen, competitive inhibition of the PROTAC assay)
Conditions: not given

| SMILES | IC50 |
| --- | --- |
| Cc1ccc(NC(=O)Nc2cccc(S(=O)(=O)Nc3cccc(C4CCC(=O)NC4=O)c3)c2)cc1Cl (stereo not shown) [AEV40181] | 320 nM |

Same assay, conditions: Table 1; AlphaScreen, PROTAC Optimization Kit for BET Bromodomain-Cereblon Binding; read-out: Alpha IC50

| SMILES | IC50 |
| --- | --- |
| O=C1CCC(c2ccc(F)cc2)C(=O)N1 (stereo not shown) [AEV40004] | 4430 nM |
| O=C1CCC(c2ccc3c(c2)OCCNC3=O)C(=O)N1 (stereo not shown) [AEV40079] | 2440 nM |
| O=C1CCC(c2cccc(NCc3ccc(Br)cc3Cl)c2)C(=O)N1 (stereo not shown) [AEV40109] | 2520 nM |
| O=C1CCC(c2ccc3c(c2)CN(CCc2ccccc2)C3=O)C(=O)N1 (stereo not shown) [AEV40049] | 2060 nM |
| O=C1CCC(c2cccc(NC(=O)c3ccc(F)c(F)c3)c2)C(=O)N1 (stereo not shown) [AEV40166] | 2520 nM |
| O=C1CCC(c2cccc(NS(=O)(=O)c3cccc(NC(=O)c4ccc(Cl)cc4)c3)c2)C(=O)N1 (stereo not shown) [AEV40135] | 1200 nM |
| O=C1CCC(c2cccc(Nc3cccc(NC(=O)C4(C(=O)Nc5ccc(F)cc5)CC4)c3)c2)C(=O)N1 (stereo not shown) [AEV40219] | 2210 nM |
| O=C1CCC(c2cccc(NCc3ccc(Cl)cc3)c2)C(=O)N1 (stereo not shown) [AEV40090] | 2140 nM |
| CC(C)C(=O)Nc1ccc(F)c(C2CCC(=O)NC2=O)c1 (stereo not shown) [AEV40035] | 3110 nM |
| O=C1CCC(c2cccc(NCc3ccc(Oc4ccccc4)cc3)c2)C(=O)N1 (stereo not shown) [AEV40103] | 3130 nM |
| NCc1cccc(C2CCC(=O)NC2=O)c1 (stereo not shown) [AEV40132] | > 10000 nM |
| O=C1CCC(c2cccc(NC(=O)c3cc4ccccc4[nH]3)c2)C(=O)N1 (stereo not shown) [AEV40190] | 2140 nM |
| CC(C)(C)c1ccc(CNc2cccc(C3CCC(=O)NC3=O)c2)cc1 (stereo not shown) [AEV40098] | 2850 nM |
| O=C1CCC(c2ccc3oc(N4CCCCC4)nc3c2)C(=O)N1 (stereo not shown) [AEV40208] | 3540 nM |
| O=C1CCC(c2ccc3c(c2)CN(S(=O)(=O)c2ccc(Cl)cc2)C3=O)C(=O)N1 (stereo not shown) [AEV40077] | 55300 nM |
| CS(=O)(=O)Nc1cccc(C2CCC(=O)NC2=O)c1 (stereo not shown) [AEV40030] | 7060 nM |

| SMILES | IC50 |
| --- | --- |
| CC(C)C(=O)Nc1cccc(C2CCC(=O)NC2=O)c1 (stereo not shown) [AEV40024] | 6110 nM |
| O=C1CCC(c2cccc(NCc3ccc(C(F)(F)F)cc3)c2)C(=O)N1 (stereo not shown) [AEV40104] | 1720 nM |
| Cc1ccc(NC(=O)NCc2cccc(Nc3cccc(C4CCC(=O)NC4=O)c3)c2)cc1Cl (stereo not shown) [AEV40192] | 3220 nM |
| O=C1CCC(c2cccc(NCc3cc(F)c(F)c(F)c3)c2)C(=O)N1 (stereo not shown) [AEV40110] | 1960 nM |
| O=C1CCC(c2ccc3c(c2)OCCN(c2cccc(NC(=O)C4CCOCC4)c2)C3=O)C(=O)N1 (stereo not shown) [AEV40216] | 2510 nM |
| CCOC(=O)/C=C/c1cc(C)ccc1C1CCC(=O)NC1=O (stereo not shown) [AEV40160] | 2920 nM |
| O=C1CCC(c2cccc(NC(=O)c3ccccc3)c2)C(=O)N1 (stereo not shown) [AEV40088] | 2190 nM |
| O=C1CCC(c2ccc3c(c2)OCCN(c2cccc(NC(=O)C4(C(=O)Nc5ccc(F)cc5)CC4)c2)C3=O)C(=O)N1 (stereo not shown) [AEV40215] | 2160 nM |
| O=C1CCC(c2cccc(NC(=O)c3ccc(-c4ccccc4)cc3)c2)C(=O)N1 (stereo not shown) [AEV40161] | > 10000 nM |
| O=C1CCC(c2cccc(NCc3cccc(Oc4ccccc4)c3)c2)C(=O)N1 (stereo not shown) [AEV40121] | 3040 nM |
| COCCN1Cc2cc(C3CCC(=O)NC3=O)ccc2C1=O (stereo not shown) [AEV40042] | 5400 nM |
| O=C1CCC(c2ccc3ncoc3c2)C(=O)N1 (stereo not shown) [AEV40203] | 1800 nM |
| CC(C)(C)OC(=O)NCc1cccc(Nc2cccc(C3CCC(=O)NC3=O)c2)c1 (stereo not shown) [AEV40186] | 2630 nM |
| O=C1CCC(c2cccc(NS(=O)(=O)c3cccc(NC(=O)c4ccc(Cl)cc4Cl)c3)c2)C(=O)N1 (stereo not shown) [AEV40150] | 1820 nM |
| COC(=O)c1cccc(S(=O)(=O)Nc2cccc(C3CCC(=O)NC3=O)c2)c1 (stereo not shown) [AEV40226] | 2220 nM |

More lines, now with the values ahead:

| IC50 | SMILES |
| --- | --- |
| 1670 nM | O=C1CCC(c2cccc(NC(=O)c3ccc(F)cc3F)c2)C(=O)N1 (stereo not shown) [AEV40164] |
| 1630 nM | O=C1CCC(c2cccc(NC(=O)c3ccsc3Cl)c2)C(=O)N1 (stereo not shown) [AEV40189] |
| 1580 nM | Cc1ccc(CNc2cccc(C3CCC(=O)NC3=O)c2)cc1F (stereo not shown) [AEV40095] |
| 1490 nM | O=C1CCC(c2cccc(NCc3cccc(F)c3)c2)C(=O)N1 (stereo not shown) [AEV40107] |
| 1490 nM | O=C1CCC(c2cccc(NS(=O)(=O)c3cccc(NC(=O)c4c(Cl)ccc(Cl)c4F)c3)c2)C(=O)N1 (stereo not shown) [AEV40159] |
| 1430 nM | O=C1CCC(c2ccc(NS(=O)(=O)c3ccc(Cl)cc3)cc2)C(=O)N1 (stereo not shown) [AEV40063] |
| 1300 nM | O=C1CCC(c2cccc(NS(=O)(=O)c3ccc(F)cc3)c2)C(=O)N1 (stereo not shown) [AEV40101] |
| 1280 nM | O=C1CCC(c2cccc(NS(=O)(=O)c3cccc(NCc4ccc5[nH]ccc5c4)c3)c2)C(=O)N1 (stereo not shown) [AEV40171] |
| 1250 nM | O=C1CCC(c2cccc(NS(=O)(=O)c3cccc(NC(=O)c4c(F)cccc4F)c3)c2)C(=O)N1 (stereo not shown) [AEV40156] |
| 1240 nM | Cc1ccc(CNc2cccc(C3CCC(=O)NC3=O)c2)cc1 (stereo not shown) [AEV40102] |
| 1230 nM | CN1CCN(c2ccc(NC(=O)CCc3cccc(Nc4cccc(C5CCC(=O)NC5=O)c4)c3)cc2)CC1 (stereo not shown) [AEV40196] |
| 1180 nM | O=C1CCC(c2ccc3c(c2)OCCN(c2cccc(NC(=O)c4ccc(Cl)cc4Cl)c2)C3=O)C(=O)N1 (stereo not shown) [AEV40217] |
| 1140 nM | Cc1cccc(CNc2cccc(C3CCC(=O)NC3=O)c2)c1 (stereo not shown) [AEV40106] |
| 1130 nM | O=C1CCC(c2cccc(NC(=O)c3cccc(Cl)c3Cl)c2)C(=O)N1 (stereo not shown) [AEV40134] |
| 1130 nM | COc1ccc(CN2CCOc3ccc(C4CCC(=O)NC4=O)cc3C2=O)cc1 (stereo not shown) [AEV40036] |
| 1120 nM | Nc1ccc(S(=O)(=O)Nc2cccc(C3CCC(=O)NC3=O)c2)cc1C(F)(F)F (stereo not shown) [AEV40075] |
| 1120 nM | COc1cc(Cl)ccc1C(=O)Nc1cccc(C2CCC(=O)NC2=O)c1 (stereo not shown) [AEV40148] |
| 1000 nM | CCc1ccc(S(=O)(=O)Nc2cccc(C3CCC(=O)NC3=O)c2)cc1 (stereo not shown) [AEV40046] |
| 1000 nM | Cn1cc(Cl)c(C(=O)Nc2cccc(C3CCC(=O)NC3=O)c2)n1 (stereo not shown) [AEV40188] |
| 990 nM | O=C1CCC(c2cccc(NCc3ccc(F)cc3O)c2)C(=O)N1 (stereo not shown) [AEV40097] |
| 980 nM | CC1(C(=O)Nc2cccc(S(=O)(=O)Nc3cccc(C4CCC(=O)NC4=O)c3)c2)CC1 (stereo not shown) [AEV40227] |
| 970 nM | Cc1ccc(CNc2cccc(C3CCC(=O)NC3=O)c2)s1 (stereo not shown) [AEV40092] |
| 960 nM | O=C1CCC(c2cccc(NC(=O)c3ccccc3Cl)c2)C(=O)N1 (stereo not shown) [AEV40144] |
| 950 nM | Cc1c(F)cccc1S(=O)(=O)Nc1cccc(C2CCC(=O)NC2=O)c1 (stereo not shown) [AEV40052] |

| IC50 | SMILES |
| --- | --- |
| 950 nM | O=C1CCC(c2cccc(NS(=O)(=O)c3cccc(NC(=O)c4ccccc4Br)c3)c2)C(=O)N1 (stereo not shown) [AEV40155] |
| 930 nM | Cc1ccc(C(=O)Nc2cccc(C3CCC(=O)NC3=O)c2)c(C)c1 (stereo not shown) [AEV40165] |
| 910 nM | O=C1CCC(c2cccc(Nc3cccc(CCC(=O)Nc4cc(-c5ccccc5)[nH]n4)c3)c2)C(=O)N1 (stereo not shown) [AEV40209] |
| 910 nM | Cc1c(Cl)cccc1S(=O)(=O)Nc1cccc(C2CCC(=O)NC2=O)c1 (stereo not shown) [AEV40043] |
| 880 nM | O=C1CCC(c2cccc(NC(=O)c3sccc3Cl)c2)C(=O)N1 (stereo not shown) [AEV40182] |
| 860 nM | O=C1CCC(c2cccc(NS(=O)(=O)c3ccc(Cl)cc3)c2)C(=O)N1 (stereo not shown) [AEV40037] |
| 850 nM | O=C1CCC(c2cccc(NC(=O)c3c[nH]c4ccccc34)c2)C(=O)N1 (stereo not shown) [AEV40194] |
| 840 nM | COc1cc(C)ccc1CNc1cccc(C2CCC(=O)NC2=O)c1 (stereo not shown) [AEV40108] |
| 820 nM | CCCCc1ccc(C(=O)Nc2cccc(N3CCOc4cc(C5CCC(=O)NC5=O)ccc4C3=O)c2)cc1 (stereo not shown) [AEV40214] |
| 810 nM | Cc1ccc(CNc2cccc(C3CCC(=O)NC3=O)c2)c(C)c1 (stereo not shown) [AEV40094] |
| 800 nM | O=C1CCC(c2cccc(NS(=O)(=O)c3cccc(NC(=O)c4cc(F)c(F)cc4F)c3)c2)C(=O)N1 (stereo not shown) [AEV40153] |
| 790 nM | Nc1nn(C(=O)CCc2cccc(Nc3cccc(C4CCC(=O)NC4=O)c3)c2)c2ccccc12 (stereo not shown) [AEV40202] |
| 790 nM | Cn1cnc(S(=O)(=O)Nc2cccc(C3CCC(=O)NC3=O)c2)c1 (stereo not shown) [AEV40051] |
| 730 nM | O=C1CCC(c2cccc(NS(=O)(=O)c3cccc(NC(=O)c4cccc(Br)c4)c3)c2)C(=O)N1 (stereo not shown) [AEV40157] |
| 690 nM | O=C1CCC(c2cc(NS(=O)(=O)c3ccc(Cl)cc3)ccc2F)C(=O)N1 (stereo not shown) [AEV40038] |
| 680 nM | O=C1CCC(c2cccc(NS(=O)(=O)c3cccc(Cl)c3Cl)c2)C(=O)N1 (stereo not shown) [AEV40058] |
| 640 nM | O=C1CCC(c2cccc(NC(=O)c3ccccc3Br)c2)C(=O)N1 (stereo not shown) [AEV40179] |
| 590 nM | O=C1CCC(c2cccc(NS(=O)(=O)c3ccccc3[N+](=O)[O-])c2)C(=O)N1 (stereo not shown) [AEV40061] |
| 230 nM | O=C1CCC(c2cccc(NS(=O)(=O)c3ccc(Cl)cc3F)c2)C(=O)N1 (stereo not shown) [AEV40044] |
| 220 nM | O=C1CCC(c2cccc(NS(=O)(=O)c3ccc4oc(=O)ccc4c3)c2)C(=O)N1 (stereo not shown) [AEV40071] |
| 210 nM | O=C1CCC(c2cccc(NS(=O)(=O)c3cccc(NCc4ccc5ocnc5c4)c3)c2)C(=O)N1 (stereo not shown) [AEV40172] |
| 200 nM | O=C1CCC(c2cccc(NS(=O)(=O)c3ccc(Cl)cc3Cl)c2)C(=O)N1 (stereo not shown) [AEV40054] |
| 200 nM | O=C1CCC(c2cccc(NS(=O)(=O)c3ccc([N+](=O)[O-])cc3)c2)C(=O)N1 (stereo not shown) [AEV40055] |
